# Laboratory results as given in patent publication US9221756B2, “Pyrrole derivatives” (priority 2011, dated 2015).
# pIC50: −log10 of the molar value. Where two headings read alike, the source gives them in different places.
# Columns and labels:
# [1] = Conversion of prodrug derivatives to active inhibitors in mouse plasma; type: in vitro ADME; conditions: 37° C., 10 μM start, prodrug remaining; for [ ] (μM) t0 min. Prodrug: 0 min; for [ ] (μM) t15 min. Prodrug: 15 min; for [ ] (μM) t30 min. Prodrug: 30 min; for [ ] (μM) t60 min. Prodrug: 60 min; for [ ] (μM) t120 min. Prodrug: 120 min
# Description: (§1) The samples were then analysed by LC-MS/MS to obtain the amount of active compound appearing and prodrug derivative remaining over time. The mouse plasma assay system is considered to be a good model for human behaviour. Nevertheless data obtained in a human plasma assay system was obtained in some cases.
# (§2) Prodrug derivatives were assessed in the mouse and human plasma stability assay at a concentration of 10 μM. Test compounds were diluted in DMSO to a final stock concentration of 10 mM. For the purpose of the assay, the stocks prepared were further diluted in DMSO to a concentration of 400 μM and […] were added to 195 μl of mouse or human plasma (pH 7.4) and then incubated at 37° C. The final concentration of DMSO in the plate was 2.5% (v/v). Reactions were terminated at 0, 15, 30, 60 and 120 min after incubation by adding 400 μl of acetonitrile containing 0.55 μM metoprolol and 1% (v/v) formic acid. The plate was then centrifuged at 3000 rpm, for 45 min, at 4° C. 80 μl of supernatant were transferred into a conical bottom 96 well glass coated plate. 40 μl of water were added prior to analysis for prodrug derivative and active species by LC-MS/MS. This assay was performed by a contract research organisation, Cyprotex Discovery Limited, UK, at the request of the inventors at Leicester.
# (§3) (1) The active compound was quantified using a 6 point calibration curve prepared in deactivated mouse and human plasma. (2) The percentage of parent compound remaining at each time point relative to 0 min sample was calculated from LC-MS/MS peak area ratios (compound peak area/internal standard peak area). This percentage was then used to determine the concentration of the parent compound at each time point in reference to the starting concentration (10 μM) at time 0 min.
# pneumolysin = pneumolysin (Streptococcus pneumoniae serotype 2, UniProt Q04IN8); assay: Inhibition of the haemolytic activity of pneumolysin (sheep erythrocytes); type: cell-based; conditions: class symbols of Table 1
# [2] = type: in vitro ADME; conditions: human plasma; for [ ] (μM) t0 min. Prodrug (Human) / [ ] (μM) t15 min. Prodrug (Human) / [ ] (μM) t30 min. Prodrug (Human) / [ ] (μM) t60 min. Prodrug (Human) / [ ] (μM) t120 min. Prodrug (Human): 37° C., 10 μM start, prodrug remaining; for [ ] (μM) t15 min. Prodrug (Human): 15 min; for [ ] (μM) t30 min. Prodrug (Human): 30 min; for [ ] (μM) t60 min. Prodrug (Human): 60 min; for [ ] (μM) t120 min. Prodrug (Human): 120 min
# Description: as §1, §2, §3
# [3] = inhibition of pneumolysin-induced haemolysis of sheep erythrocytes
# [4] = IC50, inhibition of pneumolysin-induced haemolysis of sheep erythrocytes
# [5] = inhibition of pneumolysin-induced haemolysis of sheep erythrocytes, read-out: IC50
# pneumolysin, sequence (Q04IN8 whole entry): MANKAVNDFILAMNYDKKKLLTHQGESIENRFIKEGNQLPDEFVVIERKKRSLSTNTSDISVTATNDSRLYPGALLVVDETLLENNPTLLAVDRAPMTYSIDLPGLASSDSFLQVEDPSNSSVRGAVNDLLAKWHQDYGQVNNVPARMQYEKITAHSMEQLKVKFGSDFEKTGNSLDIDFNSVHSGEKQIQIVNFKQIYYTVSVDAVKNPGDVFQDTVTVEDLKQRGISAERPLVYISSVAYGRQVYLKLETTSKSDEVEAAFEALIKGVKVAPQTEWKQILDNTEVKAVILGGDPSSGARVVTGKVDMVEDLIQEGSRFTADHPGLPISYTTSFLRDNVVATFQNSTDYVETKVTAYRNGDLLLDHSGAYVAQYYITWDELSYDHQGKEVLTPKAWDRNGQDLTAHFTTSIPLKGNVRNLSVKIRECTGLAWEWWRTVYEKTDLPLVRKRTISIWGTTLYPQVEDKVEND
SMILES,[ ] (μM) t0 min. Prodrug [1] [µM],[ ] (μM) t15 min. Prodrug [1] [µM],[ ] (μM) t30 min. Prodrug [1] [µM],[ ] (μM) t60 min. Prodrug [1] [µM],[ ] (μM) t120 min. Prodrug [1] [µM],pIC50 (pneumolysin; [3]),[ ] (μM) t0 min. Prodrug (Human) ([2]; 0 min) [µM],[ ] (μM) t15 min. Prodrug (Human) [2] [µM],[ ] (μM) t30 min. Prodrug (Human) [2] [µM],[ ] (μM) t60 min. Prodrug (Human) [2] [µM],[ ] (μM) t120 min. Prodrug (Human) [2] [µM],pIC50 (pneumolysin; [4]),"[ ] (μM) t0 min. Active (Human) (UL1-012) ([2]; 10 μM prodrug, active UL1-012 appearing, 0 min)",pIC50 (pneumolysin; [5])
"CCOC(=O)c1c(OC(=O)C(C)C)c(OC(=O)C(C)C)c(C(=O)N(C)C)n1-c1ccc(OCCOCCOCCOC)cc1 [UL1-098, 2-(dimethylcarbamoyl)-5-(ethoxycarbonyl)-1-(4-(2-(2-(2-methoxyethoxy)ethoxy)ethoxy)phenyl)-1H-pyrrole-3,4-diyl bis(2-methylpropanoate)]",10,0,0,0,0,< 4.22,10,5.42,3.45,1.76,0.65,–,–,–
"CCOC(=O)c1c(OC(=O)C(C)(C)COCCOCCOP(=O)(O)O)c(OC(=O)C(C)(C)COCCOCCOP(=O)(O)O)c(C(=O)N(C)C)n1-c1ccc(OC)cc1 [UL1-117, 2-(dimethylcarbamoyl)-5-(ethoxycarbonyl)-1-(4-methoxyphenyl)-1H-pyrrole-3,4-diyl bis(2,2-dimethyl-3-(2-(2-(phosphonooxy)ethoxy)ethoxy)propanoate)]",10,5.92,4.26,1.41,0.21,–,10,14.9,10.1,4.28,1.12,4.70 to 5.00,–,–
"CCOC(=O)c1c(OC(=O)C(C)(C)COCCOCCOC)c(OC(=O)C(C)(C)COCCOCCOC)c(C(=O)N(C)C)n1-c1ccc(OC)cc1 [UL1-111, 2-(dimethylcarbamoyl)-5-(ethoxycarbonyl)-1-(4-methoxyphenyl)-1H-pyrrole-3,4-diyl bis(3-(2-(2-methoxyethoxy)ethoxy)-2,2-dimethylpropanoate)]",10,4.74,2.47,1.16,0.47,–,10,2.84,0.80,0.09,0.00,> 5.00,<LOQ,–
"CCOC(=O)c1c(O)c(OP(=O)(O)O)c(C(=O)N(C)C)n1-c1ccc(OC)cc1 [UL1-070, ethyl 5-(dimethylcarbamoyl)-3-hydroxy-1-(4-methoxyphenyl)-4-(phosphonooxy)-1H-pyrrole-2-carboxylate]",10,6.40,4.73,2.43,0.93,–,10,8.02,8.28,7.70,7.48,4.22 to 4.70,–,–
"CCOC(=O)c1c(O)c(OCOP(=O)(O)O)c(C(=O)N(C)C)n1-c1ccc(OC)cc1 [UL1-109, ethyl 5-(dimethylcarbamoyl)-3-hydroxy-1-(4-methoxyphenyl)-4-((phosphonooxy)methoxy)-1H-pyrrole-2-carboxylate]",10,6.87,4.84,2.45,0.73,< 4.22,10,6.22,5.37,3.39,1.72,–,–,–
"CCOC(=O)c1c(OCOP(=O)(O)O)c(O)c(C(=O)N(C)C)n1-c1ccc(OC)cc1 [UL1-115, ethyl 5-(dimethylcarbamoyl)-4-hydroxy-1-(4-methoxyphenyl)-3-((phosphonooxy)methoxy)-1H-pyrrole-2-carboxylate]",10,7.56,4.04,1.54,0.38,–,10,10.8,9.41,6.69,2.98,4.22 to 4.70,–,–
"CCOC(=O)c1c(OC(=O)N2CCC(N3CCCCC3)CC2)c(OC(=O)N2CCC(N3CCCCC3)CC2)c(C(=O)N(C)C)n1-c1ccc(OC)cc1 [UL1-065, 2-(dimethylcarbamoyl)-5-(ethoxycarbonyl)-1-(4-methoxyphenyl)-1H-pyrrole-3,4-diyl bis([1,4′-bipiperidine]-1′-carboxylate)]",10,4.21,3.72,2.57,1.14,–,–,–,–,–,–,–,–,< 4.22
"CCOC(=O)c1c(OP(=O)(OCC)OCC)c(O)c(C(=O)N(C)C)n1-c1ccc(OC)cc1 [UL1-094, ethyl 3-((diethoxyphosphoryl)oxy)-5-(dimethylcarbamoyl)-4-hydroxy-1-(4-methoxyphenyl)-1H-pyrrole-2-carboxylate]",10,9.99,9.22,8.78,8.49,–,–,–,–,–,–,–,–,4.22 to 4.70
"COc1ccc(-n2c(C(=O)N(C)C)c(OC(=O)C(C)C)c(OC(=O)C(C)C)c2C(=O)N(C)C)cc1 [UL1-114, 2,5-bis(dimethylcarbamoyl)-1-(4-methoxyphenyl)-1H-pyrrole-3,4-diyl bis(2-methylpropanoate)]",10,0,0,0,0,–,10,9.53,9.48,8.22,7.22,4.70 to 5.00,–,–
